Measurements reported in patent US8969309B2, “Crystal of peptide substance as well as the preparation method and use thereof” (Shanghai Techwell Biopharmaceutical Co., Ltd., priority 2010, dated 2015).

Test: Purity and stability test (content by HPLC after sealed storage)
Assay type: physicochemical
Settings: for Content of the intial sample: HPLC content before storage; for Content of the sample stored at 25° C. for 14 days: sealed storage at 25° C. for 14 days, content by HPLC
Protocol: The purity was detected by high performance liquid chromatography (HPLC) method. HPLC method was performed according to the method reported in Journal of Industrial Microbiology & Biotechnology (2001), 26, 216-221; the normal phase HPLC is employed:
silica gel column: 4.6 mm*250 mm;
Mobile phase: ethyl acetate:methanol:water=84:9:7 (V/V/V);
Detection wavelength: 278 nm.
The purity and stability of samples prepared in the comparative example and examples 1-4 were compared. The method is described as follows:
The samples from comparative-example, example 1, example 2, example 3 and example 4 were obtained separately and kept at 25° C. for 14 days in sealed storage. And then the contents of the samples were tested by HPLC.

Structure (SMILES)	Content of the intial sample [%]	Content of the sample stored at 25° C. for 14 days [%]	stability compared with crystal A and amorphous powder (25° C., 14 days, sealed storage)
CCC(C)CC(C)CCCCCCCCC(=O)NC1CC(O)[C@@H](O)NC(=O)[C@H]2[C@@H](O)CCN2C(=O)[C@H](C(O)CC(N)=O)NC(=O)C(C(O)C(O)c2ccc(O)cc2)NC(=O)[C@@H]2C[C@@H](O)CN2C(=O)[C@H](C(C)O)NC1=O (some centres unmarked) [Comparative example, reference compound]	97.7	95.6	–
CCC(C)CC(C)CCCCCCCCC(=O)NC1CC(O)[C@@H](O)NC(=O)[C@H]2[C@@H](O)CCN2C(=O)[C@H](C(O)CC(N)=O)NC(=O)C(C(O)C(O)c2ccc(O)cc2)NC(=O)[C@@H]2C[C@@H](O)CN2C(=O)[C@H](C(C)O)NC1=O (some centres unmarked) [Example 1]	96.1	93.5	–
CCC(C)CC(C)CCCCCCCCC(=O)NC1CC(O)[C@@H](O)NC(=O)[C@H]2[C@@H](O)CCN2C(=O)[C@H](C(O)CC(N)=O)NC(=O)C(C(O)C(O)c2ccc(O)cc2)NC(=O)[C@@H]2C[C@@H](O)CN2C(=O)[C@H](C(C)O)NC1=O (some centres unmarked) [Example 2]	99.8	99.6	–
CCC(C)CC(C)CCCCCCCCC(=O)NC1CC(O)[C@@H](O)NC(=O)[C@H]2[C@@H](O)CCN2C(=O)[C@H](C(O)CC(N)=O)NC(=O)C(C(O)C(O)c2ccc(O)cc2)NC(=O)[C@@H]2C[C@@H](O)CN2C(=O)[C@H](C(C)O)NC1=O (some centres unmarked) [Example 3]	99.8	99.5	–
CCC(C)CC(C)CCCCCCCCC(=O)NC1CC(O)[C@@H](O)NC(=O)[C@H]2[C@@H](O)CCN2C(=O)[C@H](C(O)CC(N)=O)NC(=O)C(C(O)C(O)c2ccc(O)cc2)NC(=O)[C@@H]2C[C@@H](O)CN2C(=O)[C@H](C(C)O)NC1=O (some centres unmarked) [Example 4]	99.8	99.5	–
CCC(C)CC(C)CCCCCCCCC(=O)NC1CC(O)[C@@H](O)NC(=O)[C@H]2[C@@H](O)CCN2C(=O)[C@H](C(O)CC(N)=O)NC(=O)C(C(O)C(O)c2ccc(O)cc2)NC(=O)[C@@H]2C[C@@H](O)CN2C(=O)[C@H](C(C)O)NC1=O (some centres unmarked) [crystal B of the compound of formula I]	–	–	better stability
